Measured values from ChEMBL document CHEMBL1132087, “New N-substituted 7-aminocephalosporanic acid derivatives as potential agents against Streptococcus pneumoniae. Synthesis and in vitro activity” (1999).
Converted amounts (≈) assume the structure as drawn.

Columns and labels:
Type in all cases: functional
Streptococcus pneumoniae [1] = experiment: In vitro antibacterial activity against the gram-positive bacteria, penicillin resistant Streptococcus pneumoniae (4629)
Streptococcus pneumoniae [2] = experiment: In vitro antibacterial activity against the gram-positive bacteria, penicillin resistant Streptococcus pneumoniae (4630)
Streptococcus pneumoniae [3] = experiment: In vitro antibacterial activity against the gram-positive bacteria, penicillin resistant Streptococcus pneumoniae (4635)
Streptococcus pneumoniae [4] = experiment: In vitro antibacterial activity against the gram-positive bacteria, penicillin resistant Streptococcus pneumoniae (4636)
Streptococcus pneumoniae [5] = experiment: In vitro antibacterial activity against the gram-positive bacteria, penicillin sensitive Streptococcus pneumoniae (3273)
Streptococcus pneumoniae [6] = experiment: In vitro antibacterial activity against the gram-positive bacteria, penicillin sensitive Streptococcus pneumoniae (3512)
Staphylococcus aureus [7] = experiment: In vitro antibacterial activity against the gram-positive bacteria, penicillin resistant Staphylococcus aureus (2619)
Staphylococcus aureus [8] = experiment: In vitro antibacterial activity against the gram-positive bacteria, penicillin resistant Staphylococcus aureus (2672)
Staphylococcus aureus [9] = experiment: In vitro antibacterial activity against the gram-positive bacteria, penicillin resistant Staphylococcus aureus (853)
Staphylococcus aureus [10] = experiment: In vitro antibacterial activity against the gram-positive bacteria, penicillin sensitive Staphylococcus aureus (3072)
Staphylococcus aureus [11] = experiment: In vitro antibacterial activity against the gram-positive bacteria, penicillin sensitive Staphylococcus aureus (663E)
Streptococcus pyogenes = experiment: In vitro antibacterial activity against the gram-positive bacteria, erythromycin resistant Streptococcus pyogenes
Streptococcus pneumoniae [12] = experiment: In vitro antibacterial activity against the gram-positive bacteria, penicillin sensitive Streptococcus pneumoniae (3272)
Staphylococcus aureus [13] = experiment: In vitro antibacterial activity against the gram-positive bacteria, penicillin sensitive Staphylococcus aureus (3849)

SMILES	MIC (Streptococcus pneumoniae [1]) [mg/L]	MIC (Streptococcus pneumoniae [2]) [mg/L]	MIC (Streptococcus pneumoniae [3]) [mg/L]	MIC (Streptococcus pneumoniae [4]) [mg/L]	MIC (Streptococcus pneumoniae [5]) [mg/L]	MIC (Streptococcus pneumoniae [6]) [mg/L]	MIC (Staphylococcus aureus [7]) [mg/L]	MIC (Staphylococcus aureus [8]) [mg/L]	MIC (Staphylococcus aureus [9]) [mg/L]	MIC (Staphylococcus aureus [10]) [mg/L]	MIC (Staphylococcus aureus [11]) [mg/L]	MIC (Streptococcus pyogenes) [mg/L]	MIC (Streptococcus pneumoniae [12]) [mg/L]	MIC (Staphylococcus aureus [13]) [mg/L]
CC1(C)S[C@@H]2[C@H](NC(=O)[C@H](N)c3ccc(O)cc3)C(=O)N2[C@H]1C(=O)O.O=C(O)[C@H]1/C(=C/CO)O[C@@H]2CC(=O)N21	4	2	4	4	< 0.015	< 0.015	2	1	2	0.5	0.25	0.06	< 0.015	0.25
CC(=O)OCC1=C(C(=O)O)N2C(=O)[C@@H](NC(=O)CN(OCc3cccc(Cl)c3)C(=O)c3ccccc3)C2SC1 (stereo partly specified)	8 (≈ 13.9 µM)	8 (≈ 13.9 µM)	1 (≈ 1.74 µM)	2 (≈ 3.48 µM)	0.12 (≈ 0.209 µM)	0.06 (≈ 0.105 µM)	1 (≈ 1.74 µM)	4 (≈ 6.97 µM)	0.5 (≈ 0.871 µM)	0.5 (≈ 0.871 µM)	0.5 (≈ 0.871 µM)	0.25 (≈ 0.436 µM)	0.06 (≈ 0.105 µM)	0.5 (≈ 0.871 µM)
CC(=O)OCC1=C(C(=O)O)N2C(=O)[C@@H](NC(=O)CN(OCc3ccccc3)C(=O)Nc3ccccc3)C2SC1 (stereo partly specified)	8 (≈ 14.4 µM)	8 (≈ 14.4 µM)	8 (≈ 14.4 µM)	16 (≈ 28.9 µM)	0.25 (≈ 0.451 µM)	0.25 (≈ 0.451 µM)	2 (≈ 3.61 µM)	4 (≈ 7.21 µM)	1 (≈ 1.8 µM)	1 (≈ 1.8 µM)	0.5 (≈ 0.902 µM)	0.12 (≈ 0.216 µM)	0.12 (≈ 0.216 µM)	0.5 (≈ 0.902 µM)
CC(=O)OCC1=C(C(=O)O)N2C(=O)[C@@H](NC(=O)CN(OCc3ccccc3)C(=O)c3ccccc3)C2SC1 (stereo partly specified)	8 (≈ 14.8 µM)	8 (≈ 14.8 µM)	8 (≈ 14.8 µM)	16 (≈ 29.7 µM)	0.06 (≈ 0.111 µM)	0.03 (≈ 0.0556 µM)	2 (≈ 3.71 µM)	8 (≈ 14.8 µM)	1 (≈ 1.85 µM)	1 (≈ 1.85 µM)	0.5 (≈ 0.927 µM)	0.25 (≈ 0.463 µM)	0.06 (≈ 0.111 µM)	0.5 (≈ 0.927 µM)
CC(=O)OCC1=C(C(=O)O)N2C(=O)[C@@H](NC(=O)CN(OCc3cccc(Cl)c3)C(=O)Nc3ccccc3)C2SC1 (stereo partly specified)	4 (≈ 6.79 µM)	4 (≈ 6.79 µM)	2 (≈ 3.4 µM)	4 (≈ 6.79 µM)	0.12 (≈ 0.204 µM)	0.12 (≈ 0.204 µM)	1 (≈ 1.7 µM)	2 (≈ 3.4 µM)	1 (≈ 1.7 µM)	0.5 (≈ 0.849 µM)	0.5 (≈ 0.849 µM)	0.12 (≈ 0.204 µM)	0.06 (≈ 0.102 µM)	0.5 (≈ 0.849 µM)
CC(=O)OCC1=C(C(=O)O)N2C(=O)[C@@H](NC(=O)CN(OCc3ccccc3)C(=O)NCc3ccccc3)C2SC1 (stereo partly specified)	16 (≈ 28.1 µM)	16 (≈ 28.1 µM)	4 (≈ 7.03 µM)	32 (≈ 56.3 µM)	0.5 (≈ 0.879 µM)	0.25 (≈ 0.44 µM)	1 (≈ 1.76 µM)	2 (≈ 3.52 µM)	1 (≈ 1.76 µM)	1 (≈ 1.76 µM)	0.5 (≈ 0.879 µM)	0.25 (≈ 0.44 µM)	0.12 (≈ 0.211 µM)	1 (≈ 1.76 µM)
CC(=O)OCC1=C(C(=O)O)N2C(=O)[C@@H](NC(=O)CN(OCc3ccccc3Cl)C(=O)c3ccccc3)C2SC1 (stereo partly specified)	16 (≈ 27.9 µM)	16 (≈ 27.9 µM)	16 (≈ 27.9 µM)	32 (≈ 55.7 µM)	0.25 (≈ 0.436 µM)	0.25 (≈ 0.436 µM)	4 (≈ 6.97 µM)	8 (≈ 13.9 µM)	1 (≈ 1.74 µM)	1 (≈ 1.74 µM)	1 (≈ 1.74 µM)	0.5 (≈ 0.871 µM)	0.25 (≈ 0.436 µM)	0.5 (≈ 0.871 µM)
CC(=O)OCC1=C(C(=O)O)N2C(=O)[C@@H](NC(=O)CN(OCc3ccccc3Cl)C(=O)Nc3ccccc3)C2SC1 (stereo partly specified)	8 (≈ 13.6 µM)	8 (≈ 13.6 µM)	4 (≈ 6.79 µM)	8 (≈ 13.6 µM)	0.25 (≈ 0.424 µM)	0.12 (≈ 0.204 µM)	1 (≈ 1.7 µM)	2 (≈ 3.4 µM)	2 (≈ 3.4 µM)	0.5 (≈ 0.849 µM)	0.5 (≈ 0.849 µM)	0.12 (≈ 0.204 µM)	0.25 (≈ 0.424 µM)	0.5 (≈ 0.849 µM)
CC(=O)OCC1=C(C(=O)O)N2C(=O)[C@@H](NC(=O)CN(OCc3ccc(Cl)cc3)C(=O)c3ccccc3)C2SC1 (stereo partly specified)	8 (≈ 13.9 µM)	8 (≈ 13.9 µM)	8 (≈ 13.9 µM)	16 (≈ 27.9 µM)	0.12 (≈ 0.209 µM)	0.12 (≈ 0.209 µM)	2 (≈ 3.48 µM)	8 (≈ 13.9 µM)	2 (≈ 3.48 µM)	0.5 (≈ 0.871 µM)	0.5 (≈ 0.871 µM)	0.12 (≈ 0.209 µM)	0.12 (≈ 0.209 µM)	1 (≈ 1.74 µM)
